Experiment: molar heat capacity at constant pressure; mn = molality of the nth substance listed, in mol/kg
Details: 350 kPa, Liquid

O=[N+]([O-])[O-].O=[N+]([O-])[O-].[Mg+2] [magnesium nitrate] + O
molar heat capacity at constant pressure [J/K/mol]
Details	m1 = 0.0228	m1 = 0.0567	m1 = 0.1086	m1 = 0.2145	m1 = 0.3197	m1 = 0.4749	m1 = 0.6211	m1 = 0.811	m1 = 1.014
278.15 K	75.58	75.4	75.14	74.65	74.24	73.72	73.31	72.9	72.59
283.15 K	75.43	75.26	75.04	74.61	74.25	73.79	73.43	73.07	72.79
288.15 K	75.33	75.17	74.98	74.6	74.28	73.86	73.54	73.22	72.97
293.15 K	75.26	75.12	74.94	74.6	74.31	73.94	73.65	73.35	73.12
298.15 K	75.22	75.09	74.92	74.62	74.35	74.01	73.74	73.47	73.26
303.15 K	75.19	75.07	74.92	74.64	74.39	74.07	73.83	73.58	73.38
308.15 K	75.18	75.07	74.92	74.66	74.43	74.13	73.91	73.67	73.48
313.15 K	75.18	75.07	74.94	74.69	74.47	74.19	73.98	73.75	73.58
318.15 K	75.2	75.09	74.96	74.72	74.52	74.25	74.04	73.83	73.66
323.15 K	75.22	75.12	74.99	74.76	74.56	74.3	74.11	73.9	73.74
328.15 K	75.25	75.15	75.03	74.81	74.61	74.36	74.17	73.97	73.82
333.15 K	75.29	75.19	75.07	74.85	74.66	74.42	74.23	74.03	73.89
338.15 K	75.34	75.24	75.12	74.91	74.72	74.48	74.3	74.1	73.95
343.15 K	75.39	75.3	75.18	74.96	74.78	74.54	74.36	74.16	74.02
348.15 K	75.46	75.36	75.24	75.02	74.84	74.6	74.42	74.22	74.08
353.15 K	75.53	75.43	75.31	75.09	74.9	74.66	74.48	74.28	74.14
358.15 K	75.61	75.51	75.38	75.16	74.97	74.73	74.55	74.35	74.2
363.15 K	75.69	75.59	75.46	75.24	75.04	74.8	74.61	74.42	74.27
368.15 K	75.78	75.68	75.55	75.32	75.12	74.87	74.68	74.48	74.33
373.15 K	75.88	75.78	75.64	75.4	75.21	74.95	74.76	74.55	74.4
378.15 K	75.99	75.88	75.74	75.5	75.32	75.05	74.83	74.63	74.47
383.15 K	76.11	76	75.85	75.6	75.42	75.14	74.92	74.71	74.55
388.15 K	76.24	76.12	75.97	75.7	75.52	75.24	75.03	74.79	74.63
393.15 K	76.38	76.25	76.09	75.82	75.63	75.34	75.15	74.89	74.73
